Among the data in US10035790B2, “RORγ modulators” (BRISTOL-MYERS SQUIBB COMPANY, priority 2012, dated 2018) are IC50 values, retold here.

Structures are written as SMILES.

The experiment has as its target T1, ligand binding domain of human RORγ (A262-S507) (Homo sapiens, UniProt P51449).
T1 construct: made in house; host or cells: E. coli
T1 sequence (P51449 262-507): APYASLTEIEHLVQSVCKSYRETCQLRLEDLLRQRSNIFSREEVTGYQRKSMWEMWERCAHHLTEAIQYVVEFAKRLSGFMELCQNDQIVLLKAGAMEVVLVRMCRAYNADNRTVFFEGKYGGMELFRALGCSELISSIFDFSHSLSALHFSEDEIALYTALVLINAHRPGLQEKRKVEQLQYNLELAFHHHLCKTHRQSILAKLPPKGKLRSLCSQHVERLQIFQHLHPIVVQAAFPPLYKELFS
Kind of experiment: General RORγ SPA binding assay (competition with [3H]25-hydroxycholesterol). As to conditions: RORγ SPA binding assay, inhibition of [3H]25-hydroxycholesterol binding; read-out: IC50. In short, it runs like this:
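Scintillation counts from copper His-tag SPA beads (4 mg/mL, 30 min) gave percent inhibition of radioligand binding, from which IC50 values are derived. The E. coli-expressed His-tagged domain (50 nM) is first exposed to compound for 15 min at room temperature in PBS containing 0.5% fatty acid free BSA.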
In the case of `Cc1nc(C)c(-c2nnc(-c3ccnc(C(F)(F)F)n3)o2)c(C2CCN(S(=O)(=O)c3c(F)cccc3F)CC2)n1` [Compound C33, 4-{1-[(2,6-Difluorophenyl)sulfonyl]piperidin-4-yl}-2,6-dimethyl-5-{5-[2-(trifluoromethyl)pyrimidin-4-yl]-1,3,4-oxadiazol-2-yl}pyrimidine], the IC50 came out at 844 nM.
Turning to `Cc1nc(C)c(-c2nnc(-c3ccnc(C(F)(F)F)n3)o2)c(C2CCN(C(=O)Nc3c(F)cccc3C(F)(F)F)CC2)n1` [Compound C40, 4-(2,6-Dimethyl-5-{5-[2-(trifluoromethyl)pyrimidin-4-yl]-1,3,4-oxadiazol-2-yl}pyrimidin-4-yl)-N-[2-fluoro-6-(trifluoromethyl)phenyl]piperidine-1-carboxamide], the IC50 came to 47.5 nM.
The value for `C/C(=N/Oc1cc(F)nc(F)c1)c1cnc(N)nc1C1CCN(C(=O)Nc2c(F)cccc2F)CC1` [Compound B57, 4-(2-Amino-5-{(1Z)—N-[(2,6-difluoropyridin-4-yl)oxy]ethanimidoyl}pyrimidin-4-yl)-N-(2,6-difluorophenyl)piperidine-1-carboxamide] was 92.7 nM; that for `Cc1ncc(C(=O)NNc2cccc(Cl)c2)c(C2CCN(C(=O)Cc3c(F)cccc3F)CC2)n1` [Compound G1, N-(3-Chlorophenyl)-4-(1-(2-(2,6-difluorophenyl)acetyl)piperidin-4-yl)-2-methylpyrimidine-5-carbohydrazide] was 9.6 nM.
With `CC(=O)NCCC(=O)NCC(O)(COc1cccc(C(F)(F)F)n1)c1cnc(C)nc1C1CCN(C(=O)Nc2c(F)cccc2F)CC1` (stereo not drawn) [Compound N41, 4-(5-{2-[(N-Acetyl-beta-alanyl)amino]-1-hydroxy-1-({[6-(trifluoromethyl)pyridin-2-yl]oxy}methyl)ethyl}-2-methylpyrimidin-4-yl)-N-(2,6-difluorophenyl)piperidine-1-carboxamide] the figure was 150 nM; with `CC(=O)Nc1nc(C)c(C(COc2cccc(C(F)(F)F)n2)OC(C)=O)c(C2CCN(C(=O)Nc3c(F)cccc3F)CC2)n1` (stereo not drawn) [Compound N11, 1-[2-(Acetylamino)-4-(1-{[(2,6-difluorophenyl)amino]carbonyl}piperidin-4-yl)-6-methylpyrimidin-5-yl]-2-{[6-(trifluoromethyl)pyridin-2-yl]oxy}ethyl acetate], 37 nM; with `Cc1cc(C)cc(CNC(=O)c2cnc(C)nc2C2CCN(C(=O)Cc3cc(F)cc(F)c3)CC2)c1` [Compound A27, 4-(1-(2-(3,5-difluorophenyl)acetyl)piperidin-4-yl)-N-(3,5-dimethylbenzyl)-2-methylpyrimidine-5-carboxamide], 720 nM.
The value for `Nc1ncc(C(F)(F)COc2ccnc(C(F)(F)F)n2)c(C2CCN(C(=O)Nc3c(F)cccc3F)CC2)n1` [Compound N17, 4-[2-Amino-5-(1,1-difluoro-2-{[2-(trifluoromethyl)pyrimidin-4-yl]oxy}ethyl)pyrimidin-4-yl]-N-(2,6-difluorophenyl)piperidine-1-carboxamide] was 6.2 nM; that for `O=C(NCc1cccc(Cl)c1)c1cnc(O)nc1C1CCN(C(=O)Cc2c(F)cccc2F)CC1` [Compound A98, N-(3-chlorobenzyl)-4-(1-(2-(2,6-difluorophenyl)acetyl)piperidin-4-yl)-2-hydroxypyrimidine-5-carboxamide] was 398 nM.
Regarding `Cc1cc(C)cc(CNC(=O)c2cnc(C)nc2C2CCN(C(=O)C3(c4ccccc4F)CCCC3)CC2)c1` [Compound A31], the IC50 stood at 1630 nM.
The value for `Cc1cc(C)cc(CNC(=O)c2cnc(C)nc2C2CCN(CCc3ccccc3)CC2)c1` [Compound A101, N-(3,5-dimethylbenzyl)-2-methyl-4-(1-phenethylpiperidin-4-yl)pyrimidine-5-carboxamide] was 634 nM.
With `Cc1ncc(C(=O)NOc2cccc(C(F)(F)F)c2)c(C2CCN(C(=O)Cc3c(F)cccc3F)CC2)n1` [Compound H1, 4-{1-[(2,6-Difluorophenyl)acetyl]piperidin-4-yl}-2-methyl-N-{[3-(trifluoromethyl)-phenyl]oxy}pyrimidine-5-carboxamide], the IC50 was found to be 327 nM.
`Cc1nc(N)nc(C2CCN(C(=O)Nc3c(F)cccc3F)CC2)c1C(O)COc1cccc(C(F)(F)F)n1` (stereo not drawn) [Compound N9, 4-[2-Amino-5-(1-hydroxy-2-{[6-(trifluoromethyl)pyridin-2-yl]oxy}ethyl)-6-methylpyrimidin-4-yl]-N-(2,6-difluorophenyl)piperidine-1-carboxamide]: the IC50 came out at 4.2 nM.
The value for `Cc1nc(N)nc(C2CCN(C(=O)Nc3c(F)cccc3F)CC2)c1C(=O)COc1ccnc(C(F)(F)F)n1` [Compound M10, 4-[2-Amino-6-methyl-5-({[2-(trifluoromethyl)pyrimidin-4-yl]oxy}acetyl)pyrimidin-4-yl]-N-(2,6-difluorophenyl)piperidine-1-carboxamide] was 5.3 nM; that for `Cc1nc(C)c(-c2nnc(-c3ccnc(C(F)(F)F)n3)o2)c(C2CCN(C(=O)Nc3c(Cl)cccc3Cl)CC2)n1` [Compound C31, N-(2,6-dichlorophenyl)-4-(2,6-dimethyl-5-{5-[2-(trifluoromethyl)pyrimidin-4-yl]-1,3,4-oxadiazol-2-yl}pyrimidin-4-yl)piperidine-1-carboxamide] was 49.6 nM; that for `Cc1cc(C)cc(CNCc2cnc(C)nc2C2CCN(C(=O)Cc3c(F)cccc3F)CC2)c1` [Compound F6, 2-(2,6-Difluorophenyl)-1-(4-(5-((3,5-dimethylbenzylamino)methyl)-2-methylpyrimidin-4-yl)piperidin-1-yl)ethanone] was 44.2 nM.
With `Cc1ncc(C(O)(CO)COc2cccc(C(F)(F)F)n2)c(C2CCN(C(=O)Nc3c(F)cccc3F)CC2)n1` (stereo not drawn) [Compound N32, N-(2,6-Difluorophenyl)-4-{5-[1,2-dihydroxy-1-({[6-(trifluoromethyl)pyridin-2-yl]oxy}methyl)ethyl]-2-methylpyrimidin-4-yl}piperidine-1-carboxamide] the figure was 5.7 nM; with `CCc1ncc(C(=O)NCc2cc(C)cc(C)c2)c(C2CCN(C(=O)Cc3c(F)cccc3F)CC2)n1` [Compound A64, 4-(1-(2-(2,6-difluorophenyl)acetyl)piperidin-4-yl)-N-(3,5-dimethylbenzyl)-2-ethylpyrimidine-5-carboxamide], 64 nM; with `Cc1cnc(CNC(=O)c2cnc(C)nc2C2CCN(C(=O)Cc3c(F)cccc3F)CC2)cn1` [Compound A79, 4-(1-(2-(2,6-difluorophenyl)acetyl)piperidin-4-yl)-2-methyl-N-((5-methylpyrazin-2-yl)methyl) pyrimidine-5-carboxamide], 5260 nM.
With `Cc1ncc(C(=O)NCc2cccc(C(F)(F)F)n2)c(C2(F)CCN(C(=O)Cc3c(F)cccc3F)CC2)n1` [Compound A104, 4-(1-(2-(2,6-difluorophenyl)acetyl)-4-fluoropiperidin-4-yl)-2-methyl-N-((6-(trifluoromethyl)pyridin-2-yl)methyl)pyrimidine-5-carboxamide] the figure was 231 nM.
For `Cc1nc(C)c(-c2nc(-c3cccc(Cl)c3)no2)c(C2CCN(C(=O)Cc3c(F)cccc3F)CC2)n1` [Compound C4, 1-(4-(5-(3-(3-chlorophenyl)-1,2,4-oxadiazol-5-yl)-2,6-dimethylpyrimidin-4-yl)piperidin-1-yl)-2-(2,6-difluorophenyl)ethanone], the IC50 came to 620 nM.
The value for `CC(O)(COc1ccnc(C(F)(F)F)n1)c1cnc(NCC(F)F)nc1C1CCN(C(=O)Nc2c(F)cccc2F)CC1` (stereo not drawn) [Compound D39, 4-{2-[(2,2-Difluoroethyl)amino]-5-(1-hydroxy-1-methyl-2-{[2-(trifluoromethyl)pyrimidin-4-yl]oxy}ethyl)pyrimidin-4-yl}-N-(2,6-difluorophenyl)piperidine-1-carboxamide] was 5.1 nM.
With `Cc1nc(N)nc(C2CCN(C(=O)Nc3c(F)cccc3F)CC2)c1-c1nnc(-c2cccc(C(F)(F)F)n2)o1` [Compound C59, 4-(2-Amino-6-methyl-5-{5-[6-(trifluoromethyl)pyridin-2-yl]-1,3,4-oxadiazol-2-yl}pyrimidin-4-yl)-N-(2,6-difluorophenyl)piperidine-1-carboxamide] the figure was 27.9 nM; with `Cc1cc(C)cc(COCc2cnc(C)nc2C2CCN(C(=O)Cc3c(F)cccc3F)CC2)c1` [Compound E10, 2-(2,6-Difluorophenyl)-1-(4-(5-((3,5-dimethylbenzyloxy)methyl)-2-methylpyrimidin-4-yl)piperidin-1-yl)ethanone], 79 nM; with `CC(C)c1ncc(C(=O)NCc2ccc(Cl)c(Cl)c2)c(C2CCN(C(=O)Cc3c(F)cccc3F)CC2)n1` [Compound A28, N-(3,4-dichlorobenzyl)-4-(1-(2-(2,6-difluorophenyl)acetyl)piperidin-4-yl)-2-isopropylpyrimidine-5-carboxamide], 1030 nM.
With `Cc1ncc(C(O)(CN)COc2cccc(C(F)(F)F)n2)c(C2CCN(C(=O)Cc3c(F)cccc3F)CC2)n1` (stereo not drawn) [Compound N35, 1-Amino-2-(4-{1-[(2,6-difluorophenyl)acetyl]piperidin-4-yl}-2-methylpyrimidin-5-yl)-3-{[6-(trifluoromethyl)pyridin-2-yl]oxy}propan-2-ol] the figure was 5.5 nM.
As for `Cc1ncc(C(N)COc2cccc(C(F)(F)F)n2)c(C2CCN(C(=O)Nc3c(F)cccc3F)CC2)n1` (stereo not drawn) [Compound N23, 4-[5-(1-Amino-2-{[6-(trifluoromethyl)pyridin-2-yl]oxy}ethyl)-2-methylpyrimidin-4-yl]-N-(2,6-difluorophenyl)piperidine-1-carboxamide], the IC50 was 12.3 nM.

By IC50 is commonly meant the point on the concentration scale where inhibition reaches its midpoint.
